Earlier results in patent US6589787B2, “T-type calcium channel variants; compositions thereof; and uses” (Syntex (U.S.A.) LLC, priority 1998, dated 2003).

System: T-type Ca^2+ current
Conditions: freshly dissected neurons from dorsal root ganglia (DRG neurons) of adult rats

CCC1(C)CC(=O)NC1=O (stereo not shown) [ethosuximide]
block of T-type Ca^2+ current: fully block
